From patent US9328093B2, “Selective inhibitors of ubiquitin specific protease 7, the pharmaceutical compositions thereof and their therapeutic applications” (HYBRIGENICS SA, priority 2010, dated 2016)

Assays:
[1] = system: HCT116 colon cancer cells; experiment: HCT116 cell viability and proliferation assay (MTS); type: cell-based; conditions: Homo sapiens, HCT-116, 72 h, HCT116, 72 hours, read-out: Cell viability (MTS): HCT116 GI50 Day3
Experimental: HCT116 colon cancer cells were obtained from ATCC (American Type Culture Collection), and maintained in Mc Coy's 5A medium containing 10% FBS, 3 mM glutamine and 1% penicillin/streptomycin. Cells were incubated at 37° C. in a humidified atmosphere containing 5% CO2.
Cell viability was assayed using the MTS technique in 96-well culture plates (CellTiter 96® Aqueous Non-Radioactive Cell Proliferation Assay, Promega) according to the manufacturer's instructions. MTS (3-(4,5-dimethyl-thiazol-2-yl)-5-(3-carboxy-methoxyphenyl)-2-(4-sulfophenyl)-2H-tetra-zolium) is a MTT-derived tetrazolium that is reduced in metabolically active cells into a soluble, cell-permeant formazan. The amount of formazan, detected by its absorbance at 492 nm is proportional to the number of living, metabolically active cells.
10^3 HCT116 cells were seeded per well. 24 hours later, the medium was changed and the cells treated in triplicate with the concentrations of each compound from 100 μM to 50 nM. The compounds were diluted in 100% DMSO, whose final concentration on cells was kept at 0.5%.
Cells were incubated with the compounds for 72 hours, and their viability then assayed by the addition of MTS for 2 hours. Absorbance at 492 nm was measured directly from the 96-well culture plates. Gl50 (Growth Inhibition 50) concentrations for each compound were calculated using a sigmoidal variable slope fit (Prism 4.0, Graphpad Softwares). Values represent mean of three independent experiments.

[2] = target: T1, USP7 over a panel of active DUBs (Homo sapiens, UniProt Q93009); experiment: HA-Ub-VS labeling of active DUBs in HEK293 cell lysates; type: biochemical; conditions: different doses
Description: (§1) The C-terminally modified vinyl sulfone derivative of ubiquitin, UbVS, was clearly helpful for a direct visualization of active DUBs in cells. This tool, which binds covalently to the cysteine active site of deubiquitinating enzymes, was successfully applied to discover and characterize novel ubiquitin/ubiquitin-like proteases and to profile active deubiquitinating enzymes in normal, virus-infected, and malignant cells (Borodovsky et al., Chem Biol 2002, 9, 1149-1159, Hemelaar et al., Mol Cell Biol 2004, 24, 84-95, Ovaa et al., Proc Natl Acad Sci USA 2004 101, 2253-2258).
The HA-Ub-VS probe (Hemagglutin tag-Ubiquitin-Vinyl Sulfone) was used in this study to directly visualize the activity of all deubiquitinating enzymes from cell lysates. […]
Inducible USP7 shRNA HCT116 cells (previously treated with or without Doxycycline (2 μg/ml) for 4 days) as well as HEK293 cells were harvested and lysed on ice with a non denaturating buffer containing Tris pH7.4, 50 mM; NaCl, 150 mM; MgCl2, 5 mM; EDTA, 0.5 mM; DTT, 2 mM; ATP, 2 mM; NP40, 0.5% and glycerol, 10%. […] Proteins were then quantified by Bradford method (Bio-Rad Protein Assay). […] Signals were detected by enhanced chemiluminescence (ECL; Amersham) according to the reagent manufacturer's instructions.

[3] = target: T1, USP7 over a panel of active DUBs; experiment: HA-Ub-VS labeling of active DUBs in HCT116 cell lysates; type: biochemical; design: endogenous in cells; host or cells: HCT116 (inducible USP7 shRNA line), non-denaturing lysate; conditions: for HA-Ub-VS-USP7 protein level: different doses (100 μM to 3 μM), 2 hours
Description: as §1
The HA-Ub-VS probe (Hemagglutin tag-Ubiquitin-Vinyl Sulfone) was used in this study to directly visualize the activity of all deubiquitinating enzymes from cell lysates. This tool was used to evaluate the activity/specificity of our small molecule compounds on USP7 relative to all deubiquitinating enzymes active in physiological conditions.
Inducible USP7 shRNA HCT116 cells (previously treated with or without Doxycycline (2 μg/ml) for 4 days) as well as HEK293 cells were harvested and lysed on ice with a non denaturating buffer containing Tris pH7.4, 50 mM; NaCl, 150 mM; MgCl2, 5 mM; EDTA, 0.5 mM; DTT, 2 mM; ATP, 2 mM; NP40, 0.5% and glycerol, 10%. Samples were incubated at 4° C. for 1 hour and clarified. Proteins were then quantified by Bradford method (Bio-Rad Protein Assay). 25 μg of proteins from native cell lysates were treated with compounds of examples 14 and 5 (from 100 μM to 3 μM) or with NEM (N-Ethylmaleimide, a thiol-reactive compound, 5 mM) for 2 hours at room temperature. The ubiquitin labeling reaction was initiated by the addition of HA-Ub-VS (8 μg/ml) in labeling buffer (Tris pH7.6, 50 mM; MgCl2, 5 mM; EDTA, 0.5 mM; DTT, 2 mM; ATP, 2 mM; sucrose, 250 mM) and incubated at room temperature for 30 min. Samples were next heated at 100° C. for 10 minutes and briefly sonicated. They were resolved by SDS-polyacrylamide gel electrophoresis (SDS-PAGE), transferred to a nitrocellulose membrane and probed with antibodies against USP7 (Bethyl Lab, A300-034A), HA (BabCO, MMS-101P), and actin (Sigma, A2066). Horseradish peroxidase (HRP)-conjugated anti-mouse (Jackson Laboratories, 115-035-003) or HRP-conjugated anti-rabbit (Cell Signaling, 7074) antibodies were used as secondary antibodies. Signals were detected by enhanced chemiluminescence (ECL; Amersham) according to the reagent manufacturer's instructions.

T1 sequence (Q93009 whole entry): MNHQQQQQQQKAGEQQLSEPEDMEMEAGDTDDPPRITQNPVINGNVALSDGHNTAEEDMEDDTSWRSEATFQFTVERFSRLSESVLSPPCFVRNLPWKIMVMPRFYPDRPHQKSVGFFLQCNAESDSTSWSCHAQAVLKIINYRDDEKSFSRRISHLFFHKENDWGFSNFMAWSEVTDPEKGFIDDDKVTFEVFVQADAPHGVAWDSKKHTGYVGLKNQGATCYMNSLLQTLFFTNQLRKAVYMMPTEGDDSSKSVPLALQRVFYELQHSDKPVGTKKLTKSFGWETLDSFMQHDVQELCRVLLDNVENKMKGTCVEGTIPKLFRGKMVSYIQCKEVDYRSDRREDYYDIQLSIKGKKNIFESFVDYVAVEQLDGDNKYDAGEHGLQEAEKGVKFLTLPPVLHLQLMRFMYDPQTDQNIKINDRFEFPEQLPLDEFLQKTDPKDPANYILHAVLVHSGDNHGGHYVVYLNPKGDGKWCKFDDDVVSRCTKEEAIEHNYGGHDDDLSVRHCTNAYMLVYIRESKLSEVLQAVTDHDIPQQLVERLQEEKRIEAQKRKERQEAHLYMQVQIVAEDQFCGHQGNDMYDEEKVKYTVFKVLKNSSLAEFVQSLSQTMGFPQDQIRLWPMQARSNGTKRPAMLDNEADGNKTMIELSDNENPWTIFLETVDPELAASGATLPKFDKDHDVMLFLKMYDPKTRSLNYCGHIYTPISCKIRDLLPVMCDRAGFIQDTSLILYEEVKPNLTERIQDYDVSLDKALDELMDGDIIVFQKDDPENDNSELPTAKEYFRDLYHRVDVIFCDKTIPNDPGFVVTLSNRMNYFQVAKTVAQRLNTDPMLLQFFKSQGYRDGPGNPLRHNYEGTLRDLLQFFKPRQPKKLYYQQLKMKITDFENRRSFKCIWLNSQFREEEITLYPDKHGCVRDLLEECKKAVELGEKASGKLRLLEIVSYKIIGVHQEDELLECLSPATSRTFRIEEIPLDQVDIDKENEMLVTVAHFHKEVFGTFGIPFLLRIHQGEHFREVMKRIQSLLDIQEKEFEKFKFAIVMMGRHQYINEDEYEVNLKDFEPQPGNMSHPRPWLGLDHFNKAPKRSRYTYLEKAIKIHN

SMILES | GI50 [1] [µM] | HA-Ub-VS-USP7 protein level [2] | HA-Ub-VS-USP7 protein level [3] | HA-Ub-VS labeled DUB bands after treatment ([3]; fixed dose 50 μM, anti-HA immunoblot) | HA-Ub-VS labeling of the active form of DUBs ([3]; NEM 5 mM)
CCN(CCCNC(=O)c1ccc2c(Cl)c3c(nc2c1)CCCC3)Cc1ccccc1 [Example 5, 9-Chloro-5,6,7,8-tetrahydro-acridine-3-carboxylic acid [3-(benzyl-ethyl-amino)-propyl]-amide] | 4 | also confirmed | specific and dose-dependent decrease |  | 
CN(CCCNC(=O)c1ccc2c(Cl)c3c(nc2c1)CCCC3)Cc1ccccc1 [Example 14, 9-Chloro-5,6,7,8-tetrahydro-acridine-3-carboxylic acid [3-(benzyl-methyl-amino)-propyl]-amide] | 4.1 | also confirmed | specific and dose-dependent decrease | only one band was decreased | 
CCN1C(=O)C=CC1=O [NEM, N-Ethylmaleimide, reference compound] |  |  |  |  | inhibited
